Data as given in patent publication US20250099514A1, “FISH REARING COMPOSITION, AND COMPOSITION FOR PREVENTING OR TREATING FISH DISEASES” (SUMITOMO CHEMICAL COMPANY, LIMITED, priority 2021, published 2025).
Non-standard residues stand in square brackets, D forms with d. Primed or numbered codes have the meaning given here. No end group written: not given here. Dhb′ = not defined here; Dha = C=C(N)C(=O)O

Tests used:
[1] = system: Lactococcus garvieae type I (TUMSAT-K9408 strain); assay: Antibacterial activity test: growth of Lactococcus garvieae type I after shaking culture with the test substance, colony formation on TH agar; format: cell-based; set-up: key: +: presence of antibacterial activity; −: absence of antibacterial activity; conditions: 25° C., 8 hours
Description: (§1) Examination was performed on whether bacterial cell preparations of NITE BP-03198, NITE BP-03199, NITE BP-03200, NITE BP-03202, ATCC-11454, and NITE ABP-03481 inhibit the growth of Lactococcus garvieae type I (TUMSAT-K9408 strain) and type II (TUMSAT-LgN1 strain). With reference to FIG. 7, the experimental method will be described. To 270 μL of Todd-Hewitt (TH) medium 10, 30 μL of a lactic acid bacterial cell preparation 11 was added. Furthermore, 3 μL of a bacterial solution 12 containing Lactococcus garvieae (approximately 10^5 cfu/mL) was added, and shaking culture was performed at 25° C. for 8 hours. To TH agar medium 14, 5 μL of a bacterial culture solution 13 was dropped, culture was performed at 25° C. for 12 hours, and whether a colony 15 of Lactococcus garvieae formed was observed. If the number of colonies observed was five or less, it was determined that there was antibacterial activity. Lactic acid bacterial cell preparations were prepared in the following manner. For NITE BP-03198, NITE BP-03199, NITE BP-03200, and NITE BP-03202, first, the lactic acid bacteria were each cultured in MRS Broth at a temperature of 30° C., giving culture solutions. Thereafter, the culture solutions were centrifuged to precipitate bacterial cells, and the culture supernatants were collected. The culture supernatants collected were 10-fold concentrated by using an ultrafiltration membrane (Merck Millipore, AMICON ULTRA-15 3 KDa cutoff), giving bacterial cell preparations. For ATCC-11454 and NITE ABP-03481, bacterial cell preparations were obtained in the same manner as described for NITE BP-03198 and others. As a negative control, medium for lactic acid bacteria (MRS Broth) was added to a bacterial solution containing Lactococcus garvieae.
(§2) Examination was performed on whether synthetic plantaricins inhibit the growth of Lactococcus garvieae type I (TUMSAT-K9408 strain) and type II (TUMSAT-LgN1 strain). The method in Experiment 8 is the same as that in Experiment 7 except that synthetic plantaricins were used in place of the lactic acid bacterial cell preparations. Each synthetic plantaricin was synthesized by using common techniques of organic synthesis. A solution containing plantaricin A (plantaricin A), a solution obtained by mixing plantaricin E and plantaricin F at a ratio (mole ratio) of 1:1 (plantaricin EF), a solution obtained by mixing plantaricin J and plantaricin K at a ratio (mole ratio) of 1:1 (plantaricin JK), or a solution obtained by mixing plantaricin NC8α and plantaricin NC8β at a ratio (mole ratio) of 1:1 (plantaricin NC8αβ) was added to a bacterial solution containing Lactococcus garvieae, and shaking culture was performed at 25° C. for 8 hours. The bacterial solutions containing Lactococcus garvieae after culture were each dropped on agar medium, and whether a colony of Lactococcus garvieae formed was observed.
Examination was performed on whether a purified product of nisin A inhibits the growth of Lactococcus garvieae type I (TUMSAT-K9408 strain) and type II (TUMSAT-LgN1 strain). The method in Experiment 9 is the same as those in Experiments 7 and 8 except that a purified product of nisin A was used in place of the lactic acid bacterial cell preparations or the synthetic plantaricins. A purified product of nisin A (manufactured by Sigma-Aldrich Co. LLC) was dissolved in water and removed of insoluble components by centrifugation, giving a nisin A solution. […]

[2] = system: Lactococcus garvieae type II (TUMSAT-LgN1 strain); assay: Antibacterial activity test: growth of Lactococcus garvieae type II after shaking culture with the test substance, colony formation on TH agar; format: cell-based; conditions: Experiments 8 and 9, 1 to 10 μM
Description: as §1, with “The culture supernatants collected were 10-fold concentrated by using an ultrafiltration membrane (Merck Millipore, AMICON ULTRA-15 3 KDa cutoff), giving bacterial cell preparations. For ATCC-11454 and NITE ABP-03481, bacterial cell preparations were obtained in the same manner as described for NITE BP-03198 and others. As a negative control, medium for lactic acid bacteria (MRS Broth) was added to a bacterial solution containing Lactococcus garvieae.” left out

[3] = system: Lactococcus garvieae type II (TUMSAT-LgN1 strain); assay: as above; format: cell-based; set-up: key: +: presence of antibacterial activity; −: absence of antibacterial activity; conditions: 25° C., 8 hours
Description: as §1
as §2, with “The bacterial solutions containing Lactococcus garvieae after culture were each dropped on agar medium, and whether a colony of Lactococcus garvieae formed was observed.” left out

[4] = system: Lactococcus garvieae type I (TUMSAT-K9408 strain); assay: Antibacterial activity test: growth of Lactococcus garvieae type I after shaking culture with the test substance, colony formation on TH agar; format: cell-based; conditions: Experiments 8 and 9, 1 to 10 μM
Description: as §1, with “The culture supernatants collected were 10-fold concentrated by using an ultrafiltration membrane (Merck Millipore, AMICON ULTRA-15 3 KDa cutoff), giving bacterial cell preparations. For ATCC-11454 and NITE ABP-03481, bacterial cell preparations were obtained in the same manner as described for NITE BP-03198 and others. As a negative control, medium for lactic acid bacteria (MRS Broth) was added to a bacterial solution containing Lactococcus garvieae.” left out

[5] = system: Lactococcus garvieae 03/8460 strain; conditions: NPL 3; cited from earlier work
[6] = system: Lactococcus garvieae CLG4 strain; conditions: NPL 4; cited from earlier work
[7] = system: Lactococcus garvieae type I (TUMSAT-K9408 strain); assay: Antibacterial activity test: growth of Lactococcus garvieae type I after shaking culture with the test substance, colony formation on TH agar; format: cell-based; set-up: key: +: presence of antibacterial activity,; −: absence of antibacterial activity; conditions: synthetic plantaricin 10 μM; 25° C., 8 hours
Description: as §1, with “The culture supernatants collected were 10-fold concentrated by using an ultrafiltration membrane (Merck Millipore, AMICON ULTRA-15 3 KDa cutoff), giving bacterial cell preparations. For ATCC-11454 and NITE ABP-03481, bacterial cell preparations were obtained in the same manner as described for NITE BP-03198 and others. As a negative control, medium for lactic acid bacteria (MRS Broth) was added to a bacterial solution containing Lactococcus garvieae.” left out

[8] = system: Lactococcus garvieae type II (TUMSAT-LgN1 strain); assay: Antibacterial activity test: growth of Lactococcus garvieae type II after shaking culture with the test substance, colony formation on TH agar; format: cell-based; set-up: key: +: presence of antibacterial activity,; −: absence of antibacterial activity; conditions: 25° C., 8 hours
Description: as §1, with “The culture supernatants collected were 10-fold concentrated by using an ultrafiltration membrane (Merck Millipore, AMICON ULTRA-15 3 KDa cutoff), giving bacterial cell preparations. For ATCC-11454 and NITE ABP-03481, bacterial cell preparations were obtained in the same manner as described for NITE BP-03198 and others. As a negative control, medium for lactic acid bacteria (MRS Broth) was added to a bacterial solution containing Lactococcus garvieae.” left out

Row | Substance | Antibacterial activity, Lactococcus garvieae TUMSAT-K9408 ([1]; nisin A solution 1 μM) | Antibacterial activity, Lactococcus garvieae TUMSAT-K9408 ([1]; nisin A solution 3 μM) | Antibacterial activity, Lactococcus garvieae TUMSAT-K9408 ([1]; nisin A solution 10 μM) | Inhibition of the growth of Lactococcus garvieae type II (in words) [2] | Antibacterial activity, Lactococcus garvieae TUMSAT-LgN1 ([3]; nisin A solution 1 μM) | Antibacterial activity, Lactococcus garvieae TUMSAT-LgN1 ([3]; nisin A solution 3 μM) | Antibacterial activity, Lactococcus garvieae TUMSAT-LgN1 ([3]; nisin A solution 10 μM) | Inhibition of the growth of Lactococcus garvieae type I (in words) [4] | Growth of the Lactococcus garvieae 03/8460 strain [5] | Growth of the Lactococcus garvieae CLG4 strain [6] | Antibacterial activity, Lactococcus garvieae TUMSAT-K9408 [7] | Antibacterial activity, Lactococcus garvieae TUMSAT-K9408 ([1]; synthetic plantaricin 1 μM) | Antibacterial activity, Lactococcus garvieae TUMSAT-K9408 ([1]; synthetic plantaricin 3 μM) | Antibacterial activity, Lactococcus garvieae TUMSAT-LgN1 ([3]; synthetic plantaricin 1 μM) | Antibacterial activity, Lactococcus garvieae TUMSAT-LgN1 ([8]; synthetic plantaricin 3 μM) | Antibacterial activity, Lactococcus garvieae TUMSAT-LgN1 ([8]; synthetic plantaricin 10 μM)
1 | nisin A (I[Dhb′]SI[Dha]LCTPGCKTGALMGCNMKTATCHCSIHV[Dha]K; thioether (positions not given here); not fully specified (residues 3, 8, 13, 23, 25, bridges); also: lanthionine thioether rings and dehydro residues not placed; UniProt P13068 24-57, looked up) [purified product of nisin A (manufactured by Sigma-Aldrich Co. LLC) dissolved in water] | + | + | + | inhibited the growth | + | + | + | inhibited the growth |  |  |  |  |  |  |  | 
2 | nisin Z (I[Dhb′]SI[Dha]LCTPGCKTGALMGCNMKTATCNCSIHV[Dha]K; thioether (positions not given here); not fully specified (residues 3, 8, 13, 23, 25, bridges); also: lanthionine thioether rings and dehydro residues not placed; UniProt P29559 24-57, looked up) [antibacterial peptide produced by Lactococcus lactis strains TW34 and WA2-67 (literature)] |  |  |  |  |  |  |  |  | inhibited the growth | inhibited the growth |  |  |  |  |  | 
3 | plantaricin A |  |  |  | inhibited the growth |  |  |  | inhibited the growth |  |  | + | − | − | − | + | +
